Test results published in patent US20120136005A1, “E[…] THE TREATMENT OF ANXIETY” (MERZ PHARMA GmbH & CO. KGaA, priority 2009, published 2012).

What was measured:
[1] = system: unilaterally 6-OHDA-lesioned rats; assay: Turning behaviour induced by high dose of L-DOPA in 6-OHDA-lesioned rats; assay type: in vivo, Sprague Dawley rats; conditions: 0.3, 1.25 and 5 mg/kg, 30 min before the test; FIG. 3
Method: (§1) Male Sprague Dawley rats (Elevage Janvier, Le Genest Saint Isle, France) weighing between 220 and 250 g at the beginning of the study are used in these experiments. They are housed under a 12 h light/dark cycle with free access to standard pelleted food and tap water. Animal treatment and experimental procedures are approved by local ethical committees (Regierungspräsidium Darmstadt; Germany).
(§2) Dopamine-denervating lesions are performed on rats anaesthetized with a 5:1 mixture of ketamine and xylazine (1 ml/kg, i.p.). […] The animals' turning behaviour is recorded in an automated rotometer (TSE Rotameter System, TSE-Systems GmbH, Bad Homburg, Germany) over a 90 min period after the intraperitoneal (i.p.) injection of 2.5 mg/kg dexamphetamine sulphate dissolved in saline. […]
In order to evaluate the effect of eltoprazine on parkinsonian symptoms and its interaction with L-DOPA, rotational behaviour is evaluated. The numbers of ipsilateral and contralateral turns are recorded in an automated rotometer (TSE Rotameter System, TSE-Systems GmbH, Bad Homburg, Germany) over a period of 180 min. […]

[2] = system: patients; conditions: clinical trials, de Koning et al. 1994; cited from earlier work
[3] = system: Sprague-Dawley rats; assay: Fear potentiated startle; assay type: in vivo; conditions: acute treatment
Method: For contextual fear conditioning, open field, fear potentiated startle and elevate plus maze, experimentally naive adult male Sprague-Dawley rats (250-300 g; Janvier, France) were housed in groups of four per cage. Colony room temperature and humidity were maintained respectively at 20±1° C. and 60±3%. Food and water were available ad libitum and the animals were kept under an alternating 12 h/12 h day-night cycle (lights on at 07.00) for at least 6 days before the experiments were started. All experiments were conducted during the light period of the day-night cycle. For the Vogel test, male experimentally naive Wistar rats (180-220 g, State Breeding Farm “Rappolovo”, St. Petersburg, Russia; N=109) were used. Each animal was used only once.
Eltoprazine hydrochloride was dissolved in sterile water. Administration of eltoprazine or vehicle (sterile water) was done s.c. (0.078 to 1.25 mg/kg) once, 60 minutes (30 min in the Vogel test) prior to start of the behavioural assay.

[4] = system: unilaterally 6-OHDA-lesioned rats; assay: L-DOPA induced dyskinesia (AIM scores) in 6-OHDA-lesioned rat model of Parkinson's disease; assay type: in vivo, Sprague Dawley rats; conditions: eltoprazine hydrochloride 0.08, 0.3, 1.25 and 5 mg/kg s.c.; after 21 days of L-DOPA; dose-dependent; FIG. 2
Method: as §1, §2
In order to evaluate the severity of LID, AIMs are recorded every second day as described by Cenci et al. (1998). […] Each rat is scored on a severity scale from 0 to 4 based on its frequency and persistence (1=occasional; 2=frequent; 3=continuous but interrupted by sensory distraction; 4=continuous, severe and not interrupted by sensory distraction). […]

[5] = Rodgers et al., 1992; Rocha et al., 1994; cited from earlier work

Compound: c1cc2c(c(N3CCNCC3)c1)OCCO2 [eltoprazine, 1-(2,3-dihydro-1,4-benzodioxin-5-yl)piperazine]
- interference with the antiparkinsonian effect of L-DOPA (turning behaviour) [1]: does not interfere
- clinical safety [2]: clinically safe
- effect in fear potentiated startle, first experiment [3]: anxiolytic-like effect
- effect in fear potentiated startle, repetition study ([3]; same doses): strong trend
- effect on AIM scores [4]: significantly reverses
- effect in the elevated plus maze, previous data [5]: anxiogenic-like effects
